Our source for the IC50 and EC50 values is patent US20260200946A1, “KRAS(G12V) INHIBITORS” (Ranok Therapeutics (Hangzhou) Co. Ltd., priority 2022, published 2026).

The structures appear in SMILES notation. Some results are limits rather than exact numbers.

Usually EC50 stands for the midpoint of the concentration-response curve. Low readings indicate higher potency in that assay, high ones lower potency in that assay.

One assay concerns the target T1, KRAS(G12V)/SOS1 (Homo sapiens, UniProt P01116, G12V).
T1 construct: purchased Cisbio 63ADK000CB18PEH
The experiment in a line: KRAS(G12V)/SOS1 homogeneous time-resolved fluorescence (HTRF) assay. The format is binding. To be noted: absence of GTP; 4° C., 3 hours; read-out: HTRF of KRASG12V-SOS1. Here is the method: Binding of test compounds to KRAS(G12V) target protein, which in turn blocks KRAS(G12V) interaction with the SOS1 protein, was measured in the absences of GTP by homogeneous time-resolved fluorescence using the KRAS-G12V/SOS1 Binding Assay Kit (Cisbio, 63ADK000CB18PEH), following the manufacturer's instructions, except as noted. 3-fold serial dilutions of each test compound were prepared ranging from 20 µM to 1.02 nM. The test compound was mixed and incubated with reaction components, incubated in a sealed plate at 4° C. for 3 hours and fluorescence was measured using a PerkinElmer Envision plate reader. The KRAS(G12V)-SOS1 IC50 values (the concentration of 50% of the maximal inhibition) were calculated using GraphPad Prism 8.0 software.
(In TR-FRET formats the signal depends on donor and acceptor labels being close together.)

Another assay relates to NCIH727 cells. Nature of the assay: Cancer cell line proliferation (CellTiter-Glo), NCI-H727. The format is cell-based. To be noted: Homo sapiens, 72 h, NCIH727 lung carcinoid, heterozygous G12V. Here is the method:
Cell lines were cultured essentially according to ATCC recommendations.
SW620 and NCIH727 cells were plated in 384-well tissue culture plates at 1,000 cells/well and incubated at 37° C./5% CO2 for 72 hr in 40 μl of media. […] Each cell line was then treated with test compounds at various concentrations with a final concentration of 0.5% DMSO/well, and then incubated at 37° C./5% CO2 for 72 hr. 40 μl of CellTiter-Glo® Reagent (Promega Corporation, Madison, WI) was added to each well and processed according manufacturer's protocol. Results were analyzed and IC50 values were calculated in GraphPad 8.0 software.
A general note: In ATP-based viability assays light output follows the ATP content of the culture.

T1 sequence (P01116 1-188 isoform P01116-2 G12V): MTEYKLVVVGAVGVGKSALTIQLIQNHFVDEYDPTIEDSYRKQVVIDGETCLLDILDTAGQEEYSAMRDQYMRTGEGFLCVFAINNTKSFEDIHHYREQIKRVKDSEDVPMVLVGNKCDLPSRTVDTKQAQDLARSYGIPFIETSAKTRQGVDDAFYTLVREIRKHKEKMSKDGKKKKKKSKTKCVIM

With `C#Cc1c(F)ccc2cc(O)cc(-c3ncc4c(N5CC6CCC(C5)N6)nc(OCC5(CN6CCC(F)CC6)CC5)nc4c3F)c12` [Example 1, 4-(4-(3,8-diazabicyclo[3.2.1]octan-3-yl)-8-fluoro-2-((1-((4-fluoropiperidin-1-yl)methyl)cyclopropyl)methoxy)pyrido[4,3-d]pyrimidin-7-yl)-5-ethynyl-6-fluoronaphthalen-2-ol], the IC50 on KRAS(G12V)/SOS1 was 100 to 1000 nM.
As to `C#Cc1c(F)ccc2cc(O)cc(-c3ncc4c(N5CC6CCC(C5)N6C(=O)CC(C)C)nc(OCC5(CN6CCC(F)CC6)CC5)nc4c3F)c12` [Example 4], on KRAS(G12V)/SOS1, the IC50 was 100 to 1000 nM. In addition, the EC50 with NCIH727 cells was above 1000 nM.
As to `C#Cc1c(F)ccc2cc(O)cc(-c3ncc4c(N5CC6CCC(C5)N6C(=O)NC5CCOC5)nc(OCC5(CN6CCC(F)CC6)CC5)nc4c3F)c12` (centres unmarked) [Example 9], the IC50 on KRAS(G12V)/SOS1 was below 100 nM. The same molecule showed an EC50 in the assay on NCIH727 cells above 1000 nM.
For `C#Cc1c(F)ccc2cc(O)cc(-c3ncc4c(N5CC6CCC(C5)N6C(=O)Nc5ccn[nH]5)nc(OCC5(CN6CCC(F)CC6)CC5)nc4c3F)c12` [Example 10], the IC50 at KRAS(G12V)/SOS1 is below 100 nM. For the same molecule, the EC50 in the assay on NCIH727 cells is above 1000 nM.
Consider `C#Cc1c(F)ccc2cc(O)cc(-c3ncc4c(N5CC6CCC(C5)N6C(=O)C(O)O)nc(OCC5(CN6CCC(F)CC6)CC5)nc4c3F)c12` [Example 15], for which, on KRAS(G12V)/SOS1, the IC50 lay in the range of 100 to 1000 nM. The same molecule displayed an EC50 in the assay on NCIH727 cells above 1000 nM.
As for `C#Cc1c(F)ccc2cc(O)cc(-c3nc(OC)c4c(N5CC6CCC(C5)N6C(=O)CC(F)(F)F)nc(OCC5(CN6CCC(F)CC6)CC5)nc4c3F)c12` [Example 20], the IC50 on KRAS(G12V)/SOS1 was below 100 nM.
On the same count and under the same terms, as for `C#Cc1c(F)ccc2cc(O)cc(-c3ncc4c(N5CC6CCC(C5)N6C(=O)NCC(C)(C)O)nc(OCC5(CN6CCC(F)CC6)CC5)nc4c3F)c12` [Example 53], the figure is below 100 nM; as for `C#CCC(=O)N1C2CCC1CN(c1nc(OCC3(CN4CCC(F)CC4)CC3)nc3c(F)c(-c4cc(O)cc5ccc(F)c(C#C)c45)ncc13)C2` [Example 54], below 100 nM.
For the molecule `C#Cc1c(F)ccc2cc(O)cc(-c3nc(OC)c4c(N5CC6CCC(C5)N6C(=O)NC5CCCC5)nc(OCC5(CN6CCC(F)CC6)CC5)nc4c3F)c12` [Example 55], at KRAS(G12V)/SOS1, the IC50 is below 100 nM.
`C#Cc1c(F)ccc2cc(O)cc(-c3ncc4c(N5CC6CCC(C5)N6S(=O)(=O)NCCN(C)C)nc(OCC5(CN6CCC(F)CC6)CC5)nc4c3F)c12` [Example 56]: the IC50 at KRAS(G12V)/SOS1 was below 100 nM.
`C#CCCC(=O)N1C2CCC1CN(c1nc(OCC3(CN4CCC(F)CC4)CC3)nc3c(F)c(-c4cc(O)cc5ccc(F)c(C#C)c45)nc(OC)c13)C2` [Example 61]: on KRAS(G12V)/SOS1, the IC50 was below 100 nM. Further, in the assay on NCIH727 cells, the EC50 was in the range of 100 to 1000 nM.
In the assay with NCIH727 cells, `C#Cc1c(F)ccc2cc(O)cc(-c3nc(OC)c4c(N5CC6CCC(C5)N6C(=O)C[C@H](O)C(F)(F)F)nc(OCC5(CN6CC7CC7C6)CC5)nc4c3F)c12` (some centres unmarked) [Example 180] gave an EC50 of 100 to 1000 nM.
As for `C#Cc1c(F)ccc2cc(O)cc(-c3nc(OC)c4c(N5CC6CCC(C5)N6C(=O)CC(C)C(F)(F)F)nc(OCC5(CN6CC7CC7C6)CC5)nc4c3F)c12` (centres unmarked) [Example 181], the EC50 in the assay with NCIH727 cells was in the range of 100 to 1000 nM.
Same read-out and setting: for `C#Cc1c(F)ccc2cc(O)cc(-c3nc(OC)c4c(N5CC6CCC(C5)N6C(=O)NNC)nc(OCC5(CN6CC7CC7C6)CC5)nc4c3F)c12` (centres unmarked) [Example 182] the value was 100 to 1000 nM.
For `C#Cc1c(F)ccc2cc(O)cc(-c3nc(OC)c4c(N5CC6CCC(C5)N6C(=O)NC56CC(F)(C5)C6)nc(OCC5(CN6CC7CC7C6)CC5)nc4c3F)c12` (centres unmarked) [Example 183], in the assay on NCIH727 cells, the EC50 is below 100 nM.
As for `C#Cc1c(F)ccc2cc(O)cc(-c3nc(OC)c4c(N5CC6CCC(C5)N6C(=O)NC56CC(C(F)(F)F)(C5)C6)nc(OCC5(CN6CC7CC7C6)CC5)nc4c3F)c12` (centres unmarked) [Example 184], in the assay on NCIH727 cells, the EC50 fell in the range of 100 to 1000 nM.
The same measure, in the same setting: for `C#Cc1c(F)ccc2cc(O)cc(-c3nc(OC)c4c(N5CC6CCC(C5)N6C(=O)C56CC(F)(C5)C6)nc(OCC5(CN6CC7CC7C6)CC5)nc4c3F)c12` (centres unmarked) [Example 185] the value was 100 to 1000 nM.
In turn, `C#Cc1c(F)ccc2cc(O)cc(-c3nc(OC)c4c(N5CC6CCC(C5)N6C(=O)C(C#N)CC5CC5)nc(OCC5(CN6CC7CC7C6)CC5)nc4c3F)c12` (centres unmarked) [Example 186] yielded an EC50 with NCIH727 cells above 1000 nM.
As for `C#Cc1c(F)ccc2cc(O)cc(-c3nc(OC)c4c(N5CC6CCC(C5)N6C(=O)NCC(O)C(F)(F)F)nc(OCC5(CN6CC7CC7C6)CC5)nc4c3F)c12` (centres unmarked) [Example 187], the EC50 with NCIH727 cells is 100 to 1000 nM.
Still for that read-out and setting: for `C#Cc1c(F)ccc2cc(O)cc(-c3nc(OC)c4c(N5CC6CCC(C5)N6C(=O)N[C@H](C)C(F)(F)F)nc(OCC5(CN6CC7CC7C6)CC5)nc4c3F)c12` (some centres unmarked) [Example 188] the value was 100 to 1000 nM.
`C#Cc1c(F)ccc2cc(O)cc(-c3nc(OC)c4c(N5CC6CCC(C5)N6C(=O)NC(C#N)C(N)=O)nc(OCC5(CN6CC7CC7C6)CC5)nc4c3F)c12` (centres unmarked) [Example 189] came in with an EC50 in the assay with NCIH727 cells above 1000 nM.
In the assay with NCIH727 cells, `C#Cc1c(F)ccc2cc(O)cc(-c3nc(OC)c4c(N5CC6CCC(C5)N6C(=O)N[C@H]5C[C@@H](C#N)C5)nc(OCC5(CN6CC7CC7C6)CC5)nc4c3F)c12` (some centres unmarked) [Example 190] displayed a concentration giving a half-maximal response (EC50) of 100 to 1000 nM.
As for `C#Cc1c(F)ccc2cc(O)cc(-c3nc(OC)c4c(N5CC6CCC(C5)N6C(=O)N[C@H]5C[C@H](C#N)C5)nc(OCC5(CN6CC7CC7C6)CC5)nc4c3F)c12` (some centres unmarked) [Example 191], the EC50 with NCIH727 cells was in the range of 100 to 1000 nM.
As to `C#Cc1c(F)ccc2cc(O)cc(-c3nc(OC)c4c(N5CC6CCC(C5)N6C(=O)NC(C#N)C5CC5)nc(OCC5(CN6CC7CC7C6)CC5)nc4c3F)c12` (centres unmarked) [Example 192], the EC50 with NCIH727 cells is 100 to 1000 nM.
Regarding `C#Cc1c(F)ccc2cc(O)cc(-c3nc(OC)c4c(N5CC6CCC(C5)N6C(=O)CC(C)(O)C(F)(F)F)nc(OCC5(CN6CC7CC7C6)CC5)nc4c3F)c12` (centres unmarked) [Example 193], the EC50 with NCIH727 cells lay in the range of 100 to 1000 nM.
`C#Cc1c(F)ccc2cc(O)cc(-c3nc(OC)c4c(N5CC6CCC(C5)N6C(=O)NC56CC(C#N)(C5)C6)nc(OCC5(CN6CC7CC7C6)CC5)nc4c3F)c12` (centres unmarked) [Example 194] came in with an EC50 in the assay on NCIH727 cells of 100 to 1000 nM.
In turn, `C#Cc1c(F)ccc2cc(O)cc(-c3nc(OC)c4c(N5CC6CCC(C5)N6C(=O)N[C@@H]5CCC[C@@H]5C#N)nc(OCC5(CN6CC7CC7C6)CC5)nc4c3F)c12` (some centres unmarked) [Example 195] registered an EC50 in the assay with NCIH727 cells of 100 to 1000 nM.
`C#Cc1c(F)ccc2cc(O)cc(-c3nc(OC)c4c(N5CC6CCC(C5)N6C(=O)NC5(C#N)COC5)nc(OCC5(CN6CC7CC7C6)CC5)nc4c3F)c12` (centres unmarked) [Example 196] returned an EC50 with NCIH727 cells of 100 to 1000 nM.
In the assay on NCIH727 cells, `C#Cc1c(F)ccc2cc(O)cc(-c3nc(OC)c4c(N5CC6CCC(C5)N6C(=O)NC5(C#N)CCC5)nc(OCC5(CN6CC7CC7C6)CC5)nc4c3F)c12` (centres unmarked) [Example 197] registered a 50% effective concentration (EC50) below 100 nM.
Same read-out and setting: as for `C#Cc1c(F)ccc2cc(O)cc(-c3nc(OC)c4c(N5CC6CCC(C5)N6C(=O)NC56CC(C5)C6)nc(OCC5(CN6CC7CC7C6)CC5)nc4c3F)c12` (centres unmarked) [Example 198], the figure is below 100 nM; as for `C#Cc1c(F)ccc2cc(O)cc(-c3nc(OC)c4c(N5CC6CCC(C5)N6C(=O)NC5COC5)nc(OCC5(CN6CC7CC7C6)CC5)nc4c3F)c12` (centres unmarked) [Example 199], below 100 nM.
With `C#Cc1c(F)ccc2cc(O)cc(-c3nc(OC)c4c(N5CC6CCC(C5)N6C(=O)N5CC(F)C5)nc(OCC5(CN6CC7CC7C6)CC5)nc4c3F)c12` (centres unmarked) [Example 200], the EC50 with NCIH727 cells is below 100 nM.
`C#Cc1c(F)ccc2cc(O)cc(-c3nc(OC)c4c(N5CC6CCC(C5)N6C(=O)N5CC(C(F)F)C5)nc(OCC5(CN6CC7CC7C6)CC5)nc4c3F)c12` (centres unmarked) [Example 201] yielded an EC50 in the assay with NCIH727 cells of 100 to 1000 nM.
